Measured values: ChEMBL document CHEMBL1158462, “Recent advances in the development of polyamine analogues as antitumor agents” (J Med Chem, 2009)

Legend:
cells = conditions: Mus musculus, ML1
Description: Antitumor activity against mouse ML1 cells

L1210 = assay: Antitumor activity against mouse L1210 cells; format: functional, cell-based
NCI-H157 = assay: Antitumor activity against human NCI-H157 cells by MTT assay; format: functional, cell-based
A549 = assay: Antitumor activity against human A549 cells; format: functional, cell-based
[1] = Antitumor activity against human H82 cells; format: functional, cell-based; conditions: NCI-H82
NCI-H69 = assay: Antitumor activity against human H69 cells; format: functional, cell-based
DU-145 = assay: Antitumor activity against human DU145 cells; format: functional, cell-based
HT-29 = assay: Antitumor activity against human HT-29 cells; format: functional, cell-based
[2] = Antitumor activity against human U251MG cells; format: functional, cell-based; conditions: U-251
MCF7 = assay: cells; format: functional, cell-based; conditions: Homo sapiens
Description: Antitumor activity against human MCF7 cells

PC-3 = assay: cells; conditions: Homo sapiens
Description: Antitumor activity against human PC3 cells

T47D = assay: Antitumor activity against human T47D cells; format: functional, cell-based
ZR-75-1 = assay: Antitumor activity against human ZR-75-1 cells; format: functional, cell-based
MDA-MB-468 = assay: Antitumor activity against human MDA-MB-468 cells; format: functional, cell-based
[3] = Antitumor activity against human Hs 578T cells; format: functional, cell-based
LNCaP = assay: Antitumor activity against human LNCAP cells; format: functional, cell-based
DuPro = assay: Antitumor activity against human DuPro cells; format: functional, cell-based
RKO [4] = assay: Induction of SFRP4 expression in human RKO cells at 1 uM; format: functional
RKO [5] = assay: Induction of SFRP5 expression in human RKO cells at 1 uM; format: functional
RKO [6] = assay: Induction of H3K4me2 expression in human RKO cells at 1 uM; format: functional
[7] = target: Lysine-specific histone demethylase 1A (Homo sapiens) (UniProt O60341); conditions: 1 uM
Description: Inhibition of LSD1 at 1 uM

Malme-3M = assay: Antitumor activity against human MALME-3M cells; format: functional, cell-based
MCF-10A = assay: cells; format: functional, cell-based; conditions: Homo sapiens
Description: Antitumor activity against human MCF10A cells

[8] = target: T1, Histone deacetylase (Homo sapiens) (UniProt Q13547+O15379+Q9UBN7+Q92769+Q9UQL6+Q8WUI4+Q9BY41+Q96DB2+P56524+Q9UKV0+Q969S8); conditions: HeLa, at 5 µM
Description: Inhibition of HDAC from human HeLa cells assessed as of histone H3 acetylation at 5 uM

MDA-MB-435 = assay: Antitumor activity against human MDA-MB-435 cells; format: functional, cell-based
Enterocytozoon bieneusi = assay: Antimicrobial activity against Enterocytozoon bieneusi; format: functional, organism-based
[9] = target: T1, Histone deacetylase (Homo sapiens); assay: Inhibition of HDAC from human HeLa cells assessed as induction of histone H3 acetylation at 1 uM; format: cell-based

**Q.** Which IC50 (cells) does the source give for `CC(/C=C/C(=O)NO)=C\[C@@H](C)C(=O)c1ccc(N(C)C)cc1` [TRICHOSTATIN] here?
**A.** The IC50 was 250 nM.

**Q.** For `CCNCCCNCCCCNCCCNCC` [BIS(ETHYL)SPERMINE], which IC50 (L1210) is on record?
**A.** The IC50 was 500 nM.

**Q.** Which IC50 (NCI-H157) does the source give for `C(CCCNCCCNCC1CCCCCC1)CCCNCCCNCC1CCCCCC1` here?
**A.** The IC50 was 2900 nM.

**Q.** Which IC50 (A549) does the source give for `CCNCCCNCCCNCCCNC(C)CC` (stereo not given) here?
**A.** Its IC50 is 800 nM.

**Q.** And the IC50 (NCI-H157)?
**A.** The IC50 was 1300 nM.

**Q.** And the IC50 [1]?
**A.** The IC50 was 800 nM.

**Q.** What about the IC50 (NCI-H69) of the same molecule?
**A.** The IC50 was 800 nM.

**Q.** With `CCNCCCNCC#CCNCCCNCC` as the molecule, how does the IC50 (DU-145) read?
**A.** Its IC50 is greater than 30000 nM.

**Q.** And the IC50 (A549)?
**A.** The IC50 was greater than 30000 nM.

**Q.** And the IC50 (HT-29)?
**A.** The IC50 was greater than 30000 nM.

**Q.** What about the IC50 [2] of the same molecule?
**A.** Its IC50 is greater than 30000 nM.

**Q.** And the IC50 (MCF7)?
**A.** The IC50 was greater than 30000 nM.

**Q.** And the IC50 (PC-3)?
**A.** The IC50 was greater than 30000 nM.

**Q.** For `c1ccc(C(CCNCCCCNCCCNCCC(c2ccccc2)c2ccccc2)c2ccccc2)cc1`, which IC50 (NCI-H157) is on record?
**A.** Its IC50 is 4600 nM.

**Q.** For `CCNCCCNCCCNCCCNCC1CC1`, which IC50 (MCF7) is on record?
**A.** The IC50 was 200 nM.

**Q.** And the IC50 (NCI-H157)?
**A.** The IC50 was 200 nM.

**Q.** What about the IC50 (T47D) of the same molecule?
**A.** The IC50 was 200 nM.

**Q.** And the IC50 (ZR-75-1)?
**A.** Its IC50 is 200 nM.

**Q.** And the IC50 (MDA-MB-468)?
**A.** The IC50 was 200 nM.

**Q.** And the IC50 [3]?
**A.** Its IC50 is 200 nM.

**Q.** For `CCNC/C=C\CNCCCCNCCCCNC/C=C\CNCC`, which IC50 (DU-145) is on record?
**A.** Its IC50 is 140 nM.

**Q.** And the IC50 (LNCaP)?
**A.** Its IC50 is 140 nM.

**Q.** And the IC50 (DuPro)?
**A.** Its IC50 is 140 nM.

**Q.** And the IC50 (PC-3)?
**A.** Its IC50 is 140 nM.

**Q.** With `N=C(NCCCNCCCCCCCNCCCNC(=N)NC(=N)NCCC(c1ccccc1)c1ccccc1)NC(=N)NCCC(c1ccccc1)c1ccccc1` as the molecule, how does the Activity (RKO [4]) read?
**A.** Its Activity is 20%.

**Q.** And the Activity (RKO [5])?
**A.** Its Activity is 20%.

**Q.** What about the Activity (RKO [6]) of the same molecule?
**A.** The Activity was 20%.

**Q.** What about the inhibition [7] of the same molecule?
**A.** Its inhibition is 90.9%.

**Q.** With `CCSCCNCCCNCCCNCCCNCCSCC` as the molecule, how does the IC50 (NCI-H157) read?
**A.** The IC50 was 1400 nM.

**Q.** With `CCNCCCNCCCNCCCNC(C)C` as the molecule, how does the IC50 (NCI-H157) read?
**A.** Its IC50 is 1400 nM.

**Q.** For `CCNCCCNCCCNCCCNCC1CCCCCC1`, which IC50 (NCI-H157) is on record?
**A.** The IC50 was 700 nM.

**Q.** What about the IC50 [1] of the same molecule?
**A.** Its IC50 is 700 nM.

**Q.** With `c1ccc(CCc2ccccc2CNCCCCNCCCNCc2ccccc2CCc2ccccc2)cc1` as the molecule, how does the IC50 (NCI-H157) read?
**A.** The IC50 was 4200 nM.

**Q.** With `CCNCCCCNCCCCNCCCCNCC` [DIETHYLHOMOSPERMINE] as the molecule, how does the IC50 (Malme-3M) read?
**A.** Its IC50 is 1000 nM.

**Q.** What does the source list for `CCNC/C=C\CNCCCCNCCCCNCCCCNCC`?
**A.** IC50 (DU-145): 250 nM; IC50 (LNCaP): 80 nM; IC50 (DuPro): 80 nM; IC50 (PC-3): 80 nM

**Q.** With `CCCCCCCCCCCCCC1CC(=O)NCCCNCCCCNCCCN1` (stereo not given) [BUDMUNCHIAMINE L4] as the molecule, how does the IC50 (DuPro) read?
**A.** Its IC50 is 600 nM.

**Q.** And the IC50 (PC-3)?
**A.** Its IC50 is 600 nM.

**Q.** With `CCNCCCNCCCNCCCNCCSc1ccccc1` as the molecule, how does the IC50 (NCI-H157) read?
**A.** The IC50 was 300 nM.

**Q.** Which IC50 (NCI-H157) does the source give for `CCCCNCCCCNCCCCNCCCNCC` here?
**A.** The IC50 was 2200 nM.

**Q.** With `CCNCCCNCC1CC1CNCCCNCC` (stereo not given) as the molecule, how does the IC50 (DU-145) read?
**A.** The IC50 was no less than 300 nM.

**Q.** What about the IC50 (A549) of the same molecule?
**A.** Its IC50 is no less than 300 nM.

**Q.** And the IC50 (HT-29)?
**A.** Its IC50 is no less than 300 nM.

**Q.** What about the IC50 [2] of the same molecule?
**A.** The IC50 was no less than 300 nM.

**Q.** What about the IC50 (MCF7) of the same molecule?
**A.** The IC50 was no less than 300 nM.

**Q.** And the IC50 (PC-3)?
**A.** Its IC50 is no less than 300 nM.

**Q.** For `CC(C)c1ccc(CNCCCCNCCCNCc2ccc(C(C)C)cc2)cc1`, which IC50 (NCI-H157) is on record?
**A.** Its IC50 is 4200 nM.

**Q.** With `CCNCCCCNCCCCNCCCCNCCCCNC/C=C/CNCCCCNCCCCNCCCCNCCCCNCC` as the molecule, how does the IC50 (DU-145) read?
**A.** The IC50 was 90 nM.

**Q.** And the IC50 (LNCaP)?
**A.** The IC50 was 90 nM.

**Q.** And the IC50 (DuPro)?
**A.** Its IC50 is 90 nM.

**Q.** And the IC50 (PC-3)?
**A.** The IC50 was 90 nM.

**Q.** For `O=C(CCCCCCC(=O)NCc1ccc(C(=O)O)cc1)NCCCNCCCCNCC(c1ccccc1)c1ccccc1`, which IC50 (MCF7) is on record?
**A.** The IC50 was greater than 30000 nM.

**Q.** What about the IC50 (MCF-10A) of the same molecule?
**A.** Its IC50 is greater than 30000 nM.

**Q.** What about the inhibition [8] of the same molecule?
**A.** Its inhibition is 72.6%.

**Q.** For `c1ccc(-c2ccccc2CNCCCNCCCCNCCCNCc2ccccc2-c2ccccc2)cc1`, which IC50 (NCI-H157) is on record?
**A.** Its IC50 is 4100 nM.

**Q.** With `CC(=O)C(=O)NCCCCCC(=O)NCCCNCCCCNCCC(c1ccccc1)c1ccccc1` as the molecule, how does the IC50 (MCF7) read?
**A.** The IC50 was greater than 30000 nM.

**Q.** And the IC50 (MCF-10A)?
**A.** Its IC50 is greater than 30000 nM.

**Q.** And the inhibition [8]?
**A.** Its inhibition is 30.2%.

**Q.** Which IC50 (DU-145) does the source give for `CCNCCCCNCCCCNCCCCNCCCCNCC` here?
**A.** The IC50 was 100 nM.

**Q.** And the IC50 (LNCaP)?
**A.** Its IC50 is 100 nM.

**Q.** And the IC50 (PC-3)?
**A.** The IC50 was 100 nM.

**Q.** With `CCNCCCCNCCCCNCCCCNC/C=C/CNCCCCNCCCCNCCCCNCC` as the molecule, how does the IC50 (DU-145) read?
**A.** Its IC50 is 130 nM.

**Q.** What about the IC50 (LNCaP) of the same molecule?
**A.** Its IC50 is 130 nM.

**Q.** What about the IC50 (MDA-MB-435) of the same molecule?
**A.** Its IC50 is 130 nM.

**Q.** And the IC50 (Enterocytozoon bieneusi)?
**A.** Its IC50 is 130 nM.

**Q.** What about the IC50 (DuPro) of the same molecule?
**A.** Its IC50 is 130 nM.

**Q.** And the IC50 (PC-3)?
**A.** Its IC50 is 130 nM.

**Q.** Which IC50 (MCF7) does the source give for `Nc1ccccc1NC(=O)c1ccc(CNC(=O)CCCCCCCCC(=O)NCCCNCCCCNCCC(c2ccccc2)c2ccccc2)cc1` here?
**A.** Its IC50 is greater than 30000 nM.

**Q.** What about the IC50 (MCF-10A) of the same molecule?
**A.** Its IC50 is greater than 30000 nM.

**Q.** What about the inhibition [8] of the same molecule?
**A.** Its inhibition is 42.9%.

**Q.** With `CCNCCCNCCCCNCCCNCC(CC)CC` as the molecule, how does the IC50 (NCI-H157) read?
**A.** Its IC50 is 3100 nM.

**Q.** What does the source list for `O=C(CCCCCCC(=O)NCCCNCCCCNCCC(c1ccccc1)c1ccccc1)NO`?
**A.** inhibition [9]: 75%; IC50 (cells): 10000 nM

**Q.** Which IC50 (NCI-H157) does the source give for `CC(C)(C)c1ccc(CNCCCNCCCNCCCNCc2ccc(C(C)(C)C)cc2)cc1` here?
**A.** Its IC50 is 4200 nM.

**Q.** Which IC50 (MCF7) does the source give for `Nc1ccccc1NC(=O)c1ccc(CNC(=O)CCCCCCCC(=O)NCCCNCCCCNCCC(c2ccccc2)c2ccccc2)cc1` here?
**A.** The IC50 was greater than 30000 nM.

**Q.** What about the IC50 (MCF-10A) of the same molecule?
**A.** The IC50 was greater than 30000 nM.

**Q.** And the inhibition [8]?
**A.** Its inhibition is 47%.

**Q.** Which results are given for `Nc1ccccc1NC(=O)c1ccc(CNC(=O)CCCCC(=O)NCCCNCCCCNCc2ccccc2-c2ccccc2)cc1`?
**A.** IC50 (MCF7): > 30000 nM; IC50 (MCF-10A): > 30000 nM; inhibition [8]: 60.1%

**Q.** Which results are given for `CC(C)(C)c1ccc(CNCCCCNC(=O)CCCCCCC(=O)c2ncco2)cc1`?
**A.** IC50 (MCF7): 27000 nM; IC50 (MCF-10A): > 30000 nM; inhibition [8]: 43.7%
